Laboratory results published in patent publication US12577235B2, “Crystalline form of CXCR2 antagonist and application thereof” (Shenzhen Optimum Biological Technology Co., Ltd, priority 2019, dated 2026).

Tests used:
[1] = system: rat COPD model induced by smoking combined with lipopolysaccharide; assay: Anti-inflammation effect in rat COPD model induced by smoking combined with lipopolysaccharide; type: in vivo, SD rats
Experimental: Modeling: the animal model was prepared by exposing the rats to cigarette smoke once daily for 14 days. The rats were smoked for 90 min per day in 2 portions with a break of 10 min. 18 Marlboro cigarettes (with a tar content of 11 mg) were given each time. LPS was administered dropwise via airway at 200 μg/rat once weekly. The administration dropwise was performed on days 6 and 13 of smoke exposure (on the day of LPS administration dropwise, only LPS was administered dropwise for modeling without smoke exposure). • 2. Administration: an aqueous solution of 1% DMSO/20% PEG400/79% (HP-b-CD) was used as the vehicle, and the drugs were administrated intragastrically everyday at a volume of 5 mL/kg for 2 weeks. • 3. Endpoint: On day 15, pulmonary function test, sample collection, inflammatory cell count in bronchoalveolar lavage fluid, pathological analysis, and lung tissue MPO and MMP9 assay were carried out. Procedures of Pulmonary Function Test:
After the last smoking and modeling were finished, pulmonary function was tested for each group of animals on the second day, and pulmonary resistance and compliance were detected under stimulation of methacholine chloride at different doses. The animals were anesthetized by intraperitoneal injection with […] of 25% urethane. After the animals were deeply anesthetized, airway intubation was performed by separating airways, and meanwhile, jugular veins were separated. After breathing stably, the animals were put into a plethysmograph. Drug administration pipelines were inserted into the separated jugular veins. After the animals were in rest state for 1-2 min and the breathing curves were stable, then detection was started. Rats were administered with methacholine chloride at doses of 0, 0.0083, 0.025, 0.075, 0.225, 0.675 mg/kg by jugular vein intubation. The increase in airway resistance and decrease in pulmonary compliance were observed after each administration. After 1-2 min, the parameters returned to near the baseline of the previous concentration of methacholine chloride, and methacholine chloride of the next concentration was injected. After the detection was finished, subsequent alveolar lavage and sample collection were performed.
After the pulmonary function test was finished, the rats were sacrificed by cervical dislocation. After the animals were confirmed dead, the lungs were carefully separated, a lavage syringe was inserted into the main trachea and fixed with 2-0 silk thread. The right lung was ligated. 5 mL of low-temperature normal saline was slowly injected through the lavage syringe. The normal saline was slowly extracted after confirming that the normal saline was injected into the left lung. The operation was repeated twice. By the three lavages, a total of 15 mL of normal saline was injected for lavage. The obtained BALF was injected into a 15 mL centrifuge tube and preserved in a storage box at 4° C. for subsequent BALF cells counting.
After BALF was collected, the right lung which was not infused was taken off and weighted. The two upper lobes of the right lung were put into a cryopreservation tube, frozen in a freezer at −80° C. for later use. Lower lobe tissues were fixed in formalin.
1 mL of homogenously mixed BALF was added into 1 mL of a solution of 1% glacial acetic acid in normal saline. Cells were counted using a hemocytometer. The remaining lavage fluid was centrifuged at 1500 r/min for 10 min at 4° C. to give a cell mass. The cells were resuspended in 200 μL of normal saline, uniformly coated on a glass slide and stained by Wright-Giemsa stain. Macrophages, neutrophils and lymphocytes in a total of 200 cells were counted under a microscope, and the proportions of the cells was calculated. For lavage fluid collection, animals failing the lavage fluid collection were not summarized. […]

[2] = system: PPE-induced SD rat COPD model; assay: Therapeutic effect on PPE-induced COPD model; type: in vivo, SD rats; details: dose not stated (technical effects summary)
Text: • To test the therapeutic effect of the compound on PPE-induced SD rat COPD model. Materials: • Animals: SD rats (male, 160-180 g, 6 weeks age) • Test compounds: porcine pancreatic elastase (Sigma, 0.068 U/μL); Danirixin, compound 1. • Grouping: 1) vehicle group • 2) COPD model group (porcine pancreatic elastase modeling group/solvent group) • 3) PPE+Danirixin (30 mpk) • 4) PPE+compound 1 (10 mpk) • 5) PPE+compound 1 (30 mpk) Procedures: • 1. Modeling: PPE was given retrolingually. • 2. Administration: an aqueous solution of 1% DMSO/20% PEG400/79% (HP-b-CD) was used as the vehicle, and the drugs were administrated intragastrically everyday at a volume of 2 mL/rat for 4 weeks. • 3. Endpoint: On day 29, pulmonary function test, sample collection, and inflammatory cell count in bronchoalveolar lavage fluid.
Bronchoalveolar lavage: The rats were sacrificed, and dissected at the neck. Trachea intubation was performed. 1 mL of cold […] at 4° C. was infused for 3 lavages, and the lavage fluids were combined. The combined lavage fluids were centrifuged at 1200 rpm/min for 5 min, and the supernatant was discarded. The cell suspension was collected;

[3] = 10 mg/kg vs Danirixin at 30 mg/kg
[4] = 10 mg/kg, methacholine 0.025 mg/kg
[5] = 30 mg/kg vs Danirixin at 30 mg/kg
[6] = at various doses (3, 10, 30 mpk)

O=C(Nc1ccc(Cl)c(S(=O)(=O)[C@H]2CCCNC2)c1O)N[C@@H]1CCCc2cc(C(F)(F)F)oc21 [crystalline form A]
Pulmonary function improvement and anti-inflammatory effects (summary) ([1]; 3 mg/kg): significant pulmonary function improvement and anti-inflammatory effects
Pulmonary resistance, effect relative to Danirixin ([1]; 3 mg/kg and 10 mg/kg vs Danirixin at 30 mg/kg): comparable to that of Danirixin
MPO content in lung tissues, effect relative to Danirixin ([1]; 3 mg/kg vs Danirixin at 30 mg/kg): comparable effect
Pulmonary resistance, methacholine-induced pulmonary function test ([1]; 3 mg/kg, methacholine 0.025 mg/kg): significant effects in improving the pulmonary resistance
Lung tissue pathology score, effect relative to Danirixin [1, 3]: comparable of that of Danirixin
MMP9 content in lung tissue, effect relative to Danirixin [1, 3]: comparable of that of Danirixin
Number of leukocytes in BALF, effect relative to Danirixin [1, 3]: comparable effect
Number of neutrophils in BALF, effect relative to Danirixin [1, 3]: comparable effect
Pulmonary compliance, effect relative to Danirixin [1, 3]: comparable to that of Danirixin
Pulmonary compliance, methacholine-induced pulmonary function test [1, 4]: significant effect in improving the pulmonary compliance
Pulmonary resistance, methacholine-induced pulmonary function test [1, 4]: significant effects in improving the pulmonary resistance
Lung tissue pathology score, effect relative to Danirixin [1, 5]: superior effect
MMP9 content in lung tissue, effect relative to Danirixin [1, 5]: superior effect
Lung tissue pathology score, dose dependence ([1]; 3, 10, 30 mpk): improved the pathology score in a dose-dependent manner
MMP9 content in lung tissue, dose dependence ([1]; 3, 10, 30 mpk): reduced the MMP9 content in lung tissue in a dose-dependent manner
Number of neutrophils in BALF, dose dependence ([1]; 3, 10, 30 mpk): reduced the number of neutrophils in a dose-dependent manner
Anti-inflammatory effect (summary) ([1]; Danirixin 30 mpk, crystalline form A 3-30 mpk): significant anti-inflammatory effect
Pharmacodynamic effect compared with Danirixin ([1]; at a lower dose than Danirixin): equivalent pharmacodynamic effect
Pharmacodynamic effect compared with Danirixin ([1]; at the same dose as Danirixin): superior pharmacodynamic effect
MPO content in lung tissues [1, 6]: significantly reduce the MPO content
Number of leukocytes in BALF [1, 6]: significantly reduce the number of leukocytes
Number of neutrophils in BALF ([1]; down to 3 mg/kg): significant effect
Lung tissue pathology score ([1]; down to 10 mg/kg): significant effect
MMP9 content in lung tissue ([1]; down to 10 mg/kg): significant effect
Number of neutrophils [2]: significantly reduce the number of neutrophils
Pulmonary function [2]: significantly improve the pulmonary function
